Assay results as given in patent US9555039B2, “Piperidine derivatives and compositions for the inhibition of nicotinamide phosphoribosyltransferase (NAMPT)” (Forma TM, LLC., priority 2011, dated 2017).
pIC50: −log10 of the molar value.

How the values were obtained:
[1] = target: T1, Recombinant His-tagged NAMPT (Homo sapiens, UniProt P43490); assay: Biochemical inhibition assay: NAMPT enzymatic reaction, NMN quantified by mass spectrometry; conditions: 33 nM NAMPT, 1 μM NAM, 100 μM PRPP, 2.5 mM ATP, 30 minutes at room temperature; read-out: Biochem IC50
T1 construct: His; host or cells: E. coli
Summary of the method: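 Reaction 30 min at room temperature with 1 μM NAM, 100 μM PRPP, 2.5 mM ATP (final), quenched with formic acid. NMN quantified by RapidFire electrospray MS, normalized to L-cystathionine; IC50 from percent inhibition versus DMSO.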

[2] = tested on: A2780 cells; assay: In-vitro cell proliferation assay (SRB, 72 hours); assay type: cell-based; conditions: Homo sapiens, sulforhodamine B (SRB) assay
Summary of the method: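 Viable cells measured by TCA fixation and SRB staining, absorbance 570 nm; % inhibition vs DMSO control after media-only background subtraction, interpolated between two bracketing concentrations.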

T1 sequence (P43490 whole entry): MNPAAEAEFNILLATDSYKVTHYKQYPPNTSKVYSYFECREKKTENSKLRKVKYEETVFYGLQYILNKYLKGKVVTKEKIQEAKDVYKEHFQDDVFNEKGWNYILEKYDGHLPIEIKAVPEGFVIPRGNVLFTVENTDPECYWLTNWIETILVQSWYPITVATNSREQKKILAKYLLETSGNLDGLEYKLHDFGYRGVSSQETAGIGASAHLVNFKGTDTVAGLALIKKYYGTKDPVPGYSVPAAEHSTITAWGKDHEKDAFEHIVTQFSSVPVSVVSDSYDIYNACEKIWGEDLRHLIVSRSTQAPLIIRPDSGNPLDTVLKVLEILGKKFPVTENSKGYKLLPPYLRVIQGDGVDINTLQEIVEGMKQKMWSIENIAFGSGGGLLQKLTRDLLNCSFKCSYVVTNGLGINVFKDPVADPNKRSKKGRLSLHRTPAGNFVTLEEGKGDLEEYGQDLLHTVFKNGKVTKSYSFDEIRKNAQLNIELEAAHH

| Compound | pIC50 [1] | pIC50 [2] |
| --- | --- | --- |
| COc1ccc(OC)c(C(=O)N2CCC(CCCCNC(=O)c3cc4cnccc4[nH]3)CC2)c1 [N-(4-{1-[(2,5-dimethoxyphenyl)carbonyl]piperidin-4-yl}butyl)-1H-pyrrolo[3,2-c]pyridine-2-carboxamide] | 7.81 | 8.66 |
| COc1ccc(OC)c(C(=O)N2CCC(CCCCNC(=O)c3ccc4nccn4c3)CC2)c1 [N-(4-{1-[(2,5-dimethoxyphenyl)carbonyl]piperidin-4-yl}butyl)imidazo[1,2-a]pyridine-6-carboxamide] | 7.37 | 8.72 |
| COc1ccc(OC)c(C(=O)N2CCC(CCCCNC(=O)c3cc4ccncc4s3)CC2)c1 [N-(4-{1-[(2,5-dimethoxyphenyl)carbonyl]piperidin-4-yl}butyl)thieno[2,3-c]pyridine-2-carboxamide] | 8.26 | 8.54 |
| O=C(NCCCCC1CCN(C(=O)c2c(F)cccc2F)CC1)c1cc2cnccc2[nH]1 [N-(4-{1-[(2,6-difluorophenyl)carbonyl]piperidin-4-yl}butyl)-1H-pyrrolo[3,2-c]pyridine-2-carboxamide] | 8.14 | 8.85 |
| O=C(NCCCCC1CCN(C(=O)c2c(F)cccc2F)CC1)c1ccc2nccn2c1 [N-(4-{1-[(2,6-difluorophenyl)carbonyl]piperidin-4-yl}butyl)imidazo[1,2-a]pyridine-6-carboxamide] | 8.33 | 8.92 |
| O=C(NCCCCC1CCN(C(=O)c2c(F)cccc2F)CC1)c1cc2ccncc2s1 [N-(4-{1-[(2,6-difluorophenyl)carbonyl]piperidin-4-yl}butyl)thieno[2,3-c]pyridine-2-carboxamide] | 8.37 | 9.10 |
| COc1cccc(OC)c1C(=O)N1CCC(CCCCNC(=O)c2cc3cnccc3[nH]2)CC1 [N-(4-{1-[(2,6-dimethoxyphenyl)carbonyl]piperidin-4-yl}butyl)-1H-pyrrolo[3,2-c]pyridine-2-carboxamide] | 7.67 | 8.85 |
| COc1cccc(OC)c1C(=O)N1CCC(CCCCNC(=O)c2ccc3nccn3c2)CC1 [N-(4-{1-[(2,6-dimethoxyphenyl)carbonyl]piperidin-4-yl}butyl)imidazo[1,2-a]pyridine-6-carboxamide] | 7.54 | 9.00 |
| COc1cccc(OC)c1C(=O)N1CCC(CCCCNC(=O)c2cc3ccncc3s2)CC1 [N-(4-{1-[(2,6-dimethoxyphenyl)carbonyl]piperidin-4-yl}butyl)thieno[2,3-c]pyridine-2-carboxamide] | 8.25 | 8.92 |
| CCOc1ccccc1C(=O)N1CCC(CCCCNC(=O)c2cc3cnccc3[nH]2)CC1 [N-(4-{1-[(2-ethoxyphenyl)carbonyl]piperidin-4-yl}butyl)-1H-pyrrolo[3,2-c]pyridine-2-carboxamide] | 7.52 | 9.30 |
| CCOc1ccccc1C(=O)N1CCC(CCCCNC(=O)c2ccc3nccn3c2)CC1 [N-(4-{1-[(2-ethoxyphenyl)carbonyl]piperidin-4-yl}butyl)imidazo[1,2-a]pyridine-6-carboxamide] | 8.28 | 9.15 |
| CCOc1ccccc1C(=O)N1CCC(CCCCNC(=O)c2cc3ccncc3s2)CC1 [N-(4-{1-[(2-ethoxyphenyl)carbonyl]piperidin-4-yl}butyl)thieno[2,3-c]pyridine-2-carboxamide] | 8.40 | 9.22 |
| CCOc1ncccc1C(=O)N1CCC(CCCCNC(=O)c2cc3cnccc3[nH]2)CC1 [N-(4-{1-[(2-ethoxypyridin-3-yl)carbonyl]piperidin-4-yl}butyl)-1H-pyrrolo[3,2-c]pyridine-2-carboxamide] | 7.69 | 9.22 |
| CCOc1ncccc1C(=O)N1CCC(CCCCNC(=O)c2ccc3nccn3c2)CC1 [N-(4-{1-[(2-ethoxypyridin-3-yl)carbonyl]piperidin-4-yl}butyl)imidazo[1,2-a]pyridine-6-carboxamide] | 8.04 | 9.30 |
| Cc1cccc(C(=O)N2CCC(CCCCNC(=O)c3cc4cnccc4[nH]3)CC2)c1F [N-(4-{1-[(2-fluoro-3-methylphenyl)carbonyl]piperidin-4-yl}butyl)-1H-pyrrolo[3,2-c]pyridine-2-carboxamide] | 7.32 | 8.16 |
| Cc1cccc(C(=O)N2CCC(CCCCNC(=O)c3ccc4nccn4c3)CC2)c1F [N-(4-{1-[(2-fluoro-3-methylphenyl)carbonyl]piperidin-4-yl}butyl)imidazo[1,2-a]pyridine-6-carboxamide] | 7.65 | 7.90 |
| O=C(NCCCCC1CCN(C(=O)c2ccccc2F)CC1)c1cc2cnccc2[nH]1 [N-(4-{1-[(2-fluorophenyl)carbonyl]piperidin-4-yl}butyl)-1H-pyrrolo[3,2-c]pyridine-2-carboxamide] | 8.12 | 9.30 |
| O=C(NCCCCC1CCN(C(=O)c2ccccc2F)CC1)c1ccc2nccn2c1 [N-(4-{1-[(2-fluorophenyl)carbonyl]piperidin-4-yl}butyl)imidazo[1,2-a]pyridine-6-carboxamide] | 8.42 | 9.30 |

| Compound | pIC50 [1] | pIC50 [2] |
| --- | --- | --- |
| O=C(NCCCCC1CCN(C(=O)c2ccccc2F)CC1)c1cc2ccncc2s1 [N-(4-{1-[(2-fluorophenyl)carbonyl]piperidin-4-yl}butyl)thieno[2,3-c]pyridine-2-carboxamide] | 8.06 | 9.22 |
| COc1ccccc1C(=O)N1CCC(CCCCNC(=O)c2cc3cnccc3[nH]2)CC1 [N-(4-{1-[(2-methoxyphenyl)carbonyl]piperidin-4-yl}butyl)-1H-pyrrolo[3,2-c]pyridine-2-carboxamide] | 7.84 | 8.72 |
| COc1ccccc1C(=O)N1CCC(CCCCNC(=O)c2cc3ccncc3s2)CC1 [N-(4-{1-[(2-methoxyphenyl)carbonyl]piperidin-4-yl}butyl)thieno[2,3-c]pyridine-2-carboxamide] | 8.11 | 8.48 |
| Cc1nc(C(=O)N2CCC(CCCCNC(=O)c3cc4cnccc4[nH]3)CC2)cs1 [N-(4-{1-[(2-methyl-1,3-thiazol-4-yl)carbonyl]piperidin-4-yl}butyl)-1H-pyrrolo[3,2-c]pyridine-2-carboxamide] | 7.16 | 7.60 |
| Cc1nc(C(=O)N2CCC(CCCCNC(=O)c3ccc4nccn4c3)CC2)cs1 [N-(4-{1-[(2-methyl-1,3-thiazol-4-yl)carbonyl]piperidin-4-yl}butyl)imidazo[1,2-a]pyridine-6-carboxamide] | 7.50 | 7.21 |
| Cc1nc(C(=O)N2CCC(CCCCNC(=O)c3cc4ccncc4s3)CC2)cs1 [N-(4-{1-[(2-methyl-1,3-thiazol-4-yl)carbonyl]piperidin-4-yl}butyl)thieno[2,3-c]pyridine-2-carboxamide] | 7.65 | 6.00 to 7.00 |
| Cc1ncccc1C(=O)N1CCC(CCCCNC(=O)c2cc3cnccc3[nH]2)CC1 [N-(4-{1-[(2-methylpyridin-3-yl)carbonyl]piperidin-4-yl}butyl)-1H-pyrrolo[3,2-c]pyridine-2-carboxamide] | 7.67 | 8.77 |
| Cc1ncccc1C(=O)N1CCC(CCCCNC(=O)c2ccc3nccn3c2)CC1 [N-(4-{1-[(2-methylpyridin-3-yl)carbonyl]piperidin-4-yl}butyl)imidazo[1,2-a]pyridine-6-carboxamide] | 8.01 | 8.74 |
| O=C(NCCCCC1CCN(C(=O)c2csc(-c3ccccc3)n2)CC1)c1cc2cnccc2[nH]1 [N-(4-{1-[(2-phenyl-1,3-thiazol-4-yl)carbonyl]piperidin-4-yl}butyl)-1H-pyrrolo[3,2-c]pyridine-2-carboxamide] | 6.96 | 7.14 |
| O=C(NCCCCC1CCN(C(=O)c2csc(-c3ccccc3)n2)CC1)c1cc2ccncc2s1 [N-(4-{1-[(2-phenyl-1,3-thiazol-4-yl)carbonyl]piperidin-4-yl}butyl)thieno[2,3-c]pyridine-2-carboxamide] | 7.88 | 7.12 |
| O=C(NCCCCC1CCN(C(=O)c2ccc3c(c2)OCO3)CC1)c1cc2cnccc2[nH]1 [N-(4-{1-[(2H-1,3-benzodioxol-5-yl)carbonyl]piperidin-4-yl}butyl)-1H-pyrrolo[3,2-c]pyridine-2-carboxamide] | 7.11 | 7.85 |
| O=C(NCCCCC1CCN(C(=O)c2ccc3c(c2)OCO3)CC1)c1ccc2nccn2c1 [N-(4-{1-[(2H-1,3-benzodioxol-5-yl)carbonyl]piperidin-4-yl}butyl)imidazo[1,2-a]pyridine-6-carboxamide] | 7.67 | 7.53 |
| O=C(NCCCCC1CCN(C(=O)c2ccc3c(c2)OCO3)CC1)c1cc2ccncc2s1 [N-(4-{1-[(2H-1,3-benzodioxol-5-yl)carbonyl]piperidin-4-yl}butyl)thieno[2,3-c]pyridine-2-carboxamide] | 7.68 | 6.00 to 7.00 |
| O=C(NCCCCC1CCN(C(=O)c2ccc(Cl)c(Cl)c2)CC1)c1cc2cnccc2[nH]1 [N-(4-{1-[(3,4-dichlorophenyl)carbonyl]piperidin-4-yl}butyl)-1H-pyrrolo[3,2-c]pyridine-2-carboxamide] | 7.03 | 7.24 |
| O=C(NCCCCC1CCN(C(=O)c2ccc(Cl)c(Cl)c2)CC1)c1ccc2nccn2c1 [N-(4-{1-[(3,4-dichlorophenyl)carbonyl]piperidin-4-yl}butyl)imidazo[1,2-a]pyridine-6-carboxamide] | 7.31 | 6.00 to 7.00 |
| O=C(NCCCCC1CCN(C(=O)c2ccc(Cl)c(Cl)c2)CC1)c1cc2ccncc2s1 [N-(4-{1-[(3,4-dichlorophenyl)carbonyl]piperidin-4-yl}butyl)thieno[2,3-c]pyridine-2-carboxamide] | 7.46 | 6.00 to 7.00 |
| O=C(NCCCCC1CCN(S(=O)(=O)c2ccc(F)c(F)c2)CC1)c1cc2cnccc2[nH]1 [N-(4-{1-[(3,4-difluorobenzene)sulfonyl]piperidin-4-yl}butyl)-1H-pyrrolo[3,2-c]pyridine-2-carboxamide] | 7.46 | 7.64 |
